Assay results: PubChem BioAssay (NCI)
Where “and” joins values, the source holds several entries; their conditions need not be identical. Equal values may be shown once.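 How tested: cells in 96-well plates exposed to compound for 48 hours at five concentrations. At the GI50, growth is halved. TGI is the concentration that stops growth completely.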

Assays:
Assay in all cases: NCI tumour cell line growth inhibition, 48 h
[1] = test system: SNB-19 CNS
[2] = test system: SK-OV-3 ovarian
[3] = test system: M14 melanoma
[4] = test system: A498 renal
[5] = test system: NCI-H23 lung
[6] = test system: ACHN renal
[7] = test system: OVCAR-3 ovarian
[8] = test system: RPMI-8226 leukemia
[9] = test system: SR leukemia
[10] = test system: HOP-92 NSCLC

| Structure (SMILES) | TGI [1] | TGI [2] | TGI [3] | TGI [4] | TGI [5] | TGI [6] | TGI [7] | TGI [8] | TGI [9] | TGI [10] | GI50 [1] | GI50 [2] | GI50 [3] | GI50 [4] | GI50 [10] | GI50 [5] | GI50 [6] | GI50 [7] | GI50 [8] | GI50 [9] |
| --- | --- | --- | --- | --- | --- | --- | --- | --- | --- | --- | --- | --- | --- | --- | --- | --- | --- | --- | --- | --- |
| O=c1[nH]c2ccc(CC(=S)N3CCOCC3)cc2s1 | > 100 µM | > 100 µM | > 100 µM | > 100 µM | > 100 µM | > 100 µM | > 100 µM | > 100 µM | > 100 µM |  |  |  |  |  |  |  |  |  |  |  |
| CCOP(=O)(/C=C\n1cnc2c(=O)n(C(C)=O)c(N)nc21)OCC | > 100 µM | > 100 µM | > 100 µM | > 100 µM | > 100 µM | > 100 µM | > 100 µM | > 100 µM |  |  |  |  |  |  |  |  |  |  |  |  |
| O=C(O)CSCC(=O)Nc1ccc2cccc3c2c1CC3 | > 100 µM |  | > 100 µM | > 100 µM | > 100 µM | > 100 µM | > 100 µM | > 100 µM |  | > 100 µM |  |  |  |  |  |  |  |  |  |  |
| Cc1cc2[nH]c3c(C#N)c(-c4ccccc4)c(N=Nc4cccc(C(F)(F)F)c4)c(=O)n3c2cc1C | > 100 µM | > 100 µM | > 100 µM | > 100 µM | 93.4 µM | > 100 µM | 57 µM | > 100 µM |  |  |  |  |  |  |  |  |  |  |  |  |
| O=C1OCC(C#Cc2ccccc2)=C1Cl | 67.9 µM | > 100 µM | 16.4 µM | 38 µM | 26.9 µM | 6.56 µM | 10.8 µM | 4.61 µM |  | 6.84 µM | 7.49 µM | 37.7 µM | 3.88 µM | 12 µM | 2.14 µM | 14 µM | 2.49 µM | 1.9 µM | 1.56 µM |  |
| O=P(O)(O)C(CSc1ccccc1)P(=O)(O)O | > 100 µM | > 100 µM |  | > 100 µM | > 100 µM |  | > 69.2 µM | > 100 µM |  | > 100 µM |  |  |  |  |  |  |  |  |  |  |
| CC(=O)C1=C(N=[N+]=[N-])c2cccc3cccc(c23)C1=O | 91.7 µM | 82.3 µM | 26.5 µM | 71 µM | 43.4 µM | 32.4 µM | 24.6 µM | 42.8 µM |  | 42.8 µM |  |  |  |  |  |  |  |  |  |  |
| COc1cc(OC)c2c(c1OC)OCC(Cc1ccc(O)cc1)C2=O (stereo not drawn) | > 25 µM | > 25 µM | > 25 µM | > 25 µM | > 25 µM | > 25 µM | > 25 µM | > 25 µM | > 25 µM |  |  |  |  |  |  |  |  |  |  |  |
| CC[C@@]1(O)C(=O)OCc2c1cc1n(c2=O)Cc2c-1nc1ccccc1c2CC[Si](C)(C)C | > 100 µM | 14 µM | 0.0155 µM | 0.315 µM | 0.0213 µM |  | 1.4 µM | 0.834 µM |  | > 100 µM |  |  |  |  |  |  |  |  |  |  |
| N#Cc1c(-c2ccccc2)/c(=C\O)c(=O)n2c1nc1ccccc12 | > 100 µM | > 100 µM | > 100 µM | > 100 µM | > 100 µM | > 100 µM |  | > 100 µM | > 100 µM |  |  |  |  |  |  |  |  |  |  |  |
| O=C(NO)c1coc2ccccc2c1=O | > 100 µM | 31.4 µM | > 100 µM | > 100 µM | > 100 µM | > 100 µM |  | > 100 µM |  |  |  |  |  |  |  |  |  |  |  |  |
| C=C(C=O)c1c2c(nc3ccccc13)C(=O)c1ccccc1C2=O | 2.8 µM | 12.8 µM | 1.6 µM | 3.76 µM | 2.85 µM | 1.7 µM | 2.35 µM |  |  | 5.23 µM |  |  |  |  |  |  |  |  |  |  |
| CCSC1=N/C(=C\c2ccccc2O)C(Nc2ccc(C)cc2)=N1 | > 100 µM | > 100 µM | > 100 µM | > 100 µM | > 100 µM | > 100 µM | 67.3 µM | > 100 µM |  | > 100 µM |  |  |  |  |  |  |  |  |  |  |
| C/C(=N\Nc1ccc([N+](=O)[O-])cc1[N+](=O)[O-])c1ccc2ccccc2n1 | 94.4 µM | > 100 µM | > 100 µM |  | > 100 µM | > 100 µM |  | > 100 µM | > 100 µM | > 100 µM |  |  |  |  |  |  |  |  |  |  |
| O=C1CCCc2c1c1c(n2Cc2ccccc2)-c2ccccc2C1=O | 41.1 µM | > 100 µM | 46.4 µM |  | 32.1 µM | 30.9 µM | 36.7 µM | 24.3 µM |  | 99.7 µM |  |  |  |  |  |  |  |  |  |  |
| CC(C)C(C/C=C1/CC(CO)(COC(=O)CC(C(C)C)C(C)C)OC1=O)C(C)C (stereo not drawn) | 25.8 µM | 30.5 µM | 26.8 µM | 11 µM | 29.9 µM | 18.2 µM | 26.7 µM |  | > 50.3 µM | 18.7 µM |  |  |  |  |  |  |  |  |  |  |
| CN1CCC2(CC1)C(=O)N(N1CCCCCC1)C(=O)N2c1ccccc1 | > 100 µM | > 100 µM | > 100 µM | > 100 µM | > 100 µM | > 100 µM | > 100 µM | > 100 µM | > 100 µM |  |  |  |  |  |  |  |  |  |  |  |
| c1ccc(N=C2SC(=NNc3ccccc3)SC2=Nc2ccccc2)cc1 | > 100 µM | > 100 µM |  | > 100 µM | > 100 µM | > 100 µM |  | > 100 µM | > 100 µM | > 100 µM |  |  |  |  |  |  |  |  |  |  |
| COc1ccc(/C=C2\CSC/C(=C\c3ccc(OC)c(OC)c3OC)C2=O)c(OC)c1OC | > 100 µM | > 100 µM | 40.2 µM |  | > 100 µM | 52.9 µM | > 100 µM | 67.3 µM | 80.4 µM | 96.1 µM |  |  |  |  |  |  |  |  |  |  |
| COc1cc([C@@H]2c3cc4c(cc3[C@@H](NCCNCCO)[C@H]3COC(=O)[C@H]23)OCO4)cc(OC)c1O | 19.2 µM and > 32.2 µM | 12.4 µM and 8.25 µM | 28.1 µM and 20.2 µM | 19.9 µM | 9.94 µM and 10.8 µM | 8.68 µM and 21.2 µM | > 66.9 µM and 11.1 µM | 3.84 µM |  |  |  |  |  |  |  |  | 0.856 µM and 2.43 µM | 7.28 µM and 2.31 µM | 0.46 µM and 0.522 µM | 0.303 µM |
| N#CCC(=O)Nn1c(CC#N)nnc1Cc1ccccc1 | > 100 µM |  | > 100 µM |  | > 100 µM | > 100 µM | > 100 µM | > 100 µM | > 100 µM | > 100 µM |  |  |  |  |  |  |  |  |  |  |
| O=C(Cn1nc(Br)c(Br)c1Br)c1ccccc1 | > 100 µM | 95.2 µM | 92.1 µM | 85.8 µM | 94.3 µM | 76.2 µM | > 100 µM |  | 25.9 µM | 66.8 µM |  |  |  |  |  |  |  |  |  |  |
| CC1C(c2ccc3c(c2)OCO3)c2cc3c(cc2OC1N1CCCC1)OCO3 (stereo not drawn) | > 100 µM |  | 57.6 µM |  | > 100 µM | > 100 µM | > 100 µM | 73.2 µM | 89.8 µM |  |  |  |  |  |  |  |  |  |  |  |
